Measured values as given in patent US8105835B2, “Method for micropropagation of monocots based on sustained totipotent cell cultures” (The University of South Carolina, priority 2007, dated 2012).

Legend:
[1] = test system: Arundo donax explants (cross-sectional segments of immature inflorescence); experiment: Phosphinothricin selection of explants on primary solid culture medium; assay type: cell-based; conditions: 10 mg/L, four weeks selection, FIG. 6A
Procedure: Agrobacterium tumefaciens carrying the plasmid, pMSF3022, was used to transform Arundo donax explants (cross-sectional segments of immature inflorescence). Plasmid pMSF3022 carries the bar gene that confers resistance to phosphinothricin and provides a positive selection and the gfp (green fluorescent protein) gene which provides a visual selection of transformants. Antibiotic resistant transformants were selected for four weeks after gene transfer by incubating the explants on primary solid culture medium with or without phosphinothricin and containing ticarcillin at […] concentration to eliminate residual Agrobacterium. As shown in FIG. 6A control explants (untransformed) were killed by 10 mg/L of phosphinothricin (antibiotic/herbicide). In the absence of the antibiotic/herbicide, the control explants develop embryogenic callus (FIG. 6B). In contrast, the explants that were cocultivated with the A. tumefaciens carrying the plasmid, pMSF3022 (transformed), were able to develop embryogenic callus in the presence of 10 mg/L of phosphinothricin (FIG. 6C).

[2] = test system: monocot embryogenic cell culture; experiment: Transfer of culture from auxin plus cytokinin medium to medium with cytokinin only; assay type: cell-based; conditions: medium without auxin but maintaining the cytokinin
Procedure: As known to those of skill in the art, cytokinins, both natural and synthetic, are used to induce shoot formation while inhibiting root formation (Trigiano and Gray, Plant tissue culture concepts and laboratory exercises. Second ed., Boca Raton: CRC Press (2000)).
In one embodiment, the tertiary medium is prepared by adding to sterile water (a) the cytokinin, thidiazuron; (b) sucrose, 30 g/l; (c) Miller's salt solution (6% w/v, KH2 PO4), about 3 ml; and (d) MS salts, 4.3 g/l. In one embodiment the concentration of the thidiazuron is from about 0.01 mg/l to about 1 mg/l. In another embodiment, the concentration of the thidiazuron is about 0.02 mg/l.

Row | Structure (SMILES) | effect on control (untransformed) explants [1] | effect on shoot elongation and root formation [2]
1 | CP(=O)(O)CC[C@H](N)C(=O)O [phosphinothricin] | killed | –
2 | O=C(Nc1ccccc1)Nc1cnns1 [thidiazuron] | – | not only was shoot elongation promoted but unexpectedly root formation also resulted
